Measured values from ChEMBL document CHEMBL1158270, “Triangulynes A-H and trangulynic acid, new cytotxic polyacetylenes from the marine sponge Pellina triangulata” (1996).
Activity calls are given as the source filed them.

Key:
Assay type in all cases: functional
CCRF-CEM = test: Cytotoxicity against human CCRF-CEM cells
HL-60 = test: Cytotoxicity against human HL60 cells
K562 = test: Cytotoxicity against human K562 cells
MOLT-4 = test: Cytotoxicity against human MOLT4 cells
RPMI-8226 = test: Cytotoxicity against human RPMI8226 cells
SR = test: Cytotoxicity against human SR cells
COLO 205 = test: Cytotoxicity against human COLO205 cells
HCC 2998 = test: Cytotoxicity against human HCC2998 cells
HCT-116 = test: Cytotoxicity against human HCT116 cells
HCT-15 = test: Cytotoxicity against human HCT15 cells
HT-29 = test: Cytotoxicity against human HT29 cells
KM12 = test: Cytotoxicity against human KM12 cells
SW-620 = test: Cytotoxicity against human SW620 cells
LOX IMVI = test: Cytotoxicity against human LOXIMVI cells
Malme-3M = test: Cytotoxicity against human MALME-3M cells
M14 = test: Cytotoxicity against human M14 cells

Measured: Activity

C#C[C@H](O)/C=C/CCCCCCCC/C=C\CCCCCCCC[C@H](O)C#CC#CC#CCO
active: CCRF-CEM | HL-60 | K562 | MOLT-4 | RPMI-8226 | SR | COLO 205 | HCC 2998 | HCT-116 | HCT-15 | HT-29 | KM12 | SW-620 | LOX IMVI | Malme-3M | M14

C#C[C@H](O)/C=C/CCCCCCCCCC/C=C\CCCCCCCC[C@H](O)C#CC#CC#CCO
active: CCRF-CEM | HL-60 | K562 | MOLT-4 | RPMI-8226 | SR | COLO 205 | HCC 2998 | HCT-116 | HCT-15 | HT-29 | KM12 | SW-620 | LOX IMVI | Malme-3M | M14

C#C[C@H](O)/C=C/CCCCCCCCCCCC/C=C\CCCCCCCCCCCCCC[C@H](O)C#CC#CC#CCO
active: CCRF-CEM | HL-60 | K562 | MOLT-4 | RPMI-8226 | SR | COLO 205 | HCC 2998 | HCT-116 | HCT-15 | HT-29 | KM12 | SW-620 | LOX IMVI | Malme-3M | M14

C#C/C=C\[C@H](O)CCCCCCCCCCC/C=C\CCCCCCCCCCC[C@H](O)C#CC#CC#CCO
active: CCRF-CEM | HL-60 | K562 | MOLT-4 | RPMI-8226 | SR | COLO 205 | HCC 2998 | HCT-116 | HCT-15 | HT-29 | KM12 | SW-620 | LOX IMVI | Malme-3M | M14

C#C[C@H](O)/C=C/CCCCCCCCC/C=C\C#CCCCCCC[C@H](O)C#CC#CC#CCO
active: CCRF-CEM | HL-60 | K562 | MOLT-4 | RPMI-8226 | SR | COLO 205 | HCC 2998 | HCT-116 | HCT-15 | HT-29 | KM12 | SW-620 | LOX IMVI | Malme-3M | M14

C#CC(O)/C=C/CCCCCCCCC/C=C\C#CCCCCCCCCCC#CC#CC#CCO (configuration not stated)
active: CCRF-CEM | HL-60 | K562 | MOLT-4 | RPMI-8226 | SR | COLO 205 | HCC 2998 | HCT-116 | HCT-15 | HT-29 | KM12 | SW-620 | LOX IMVI | Malme-3M | M14

C#C[C@H](O)/C=C/CCCCCCCCC/C=C\C#CCCCCCCCC[C@H](O)C#CC#CC#CCO
active: CCRF-CEM | HL-60 | K562 | MOLT-4 | RPMI-8226 | SR | COLO 205 | HCC 2998 | HCT-116 | HCT-15 | HT-29 | KM12 | SW-620 | LOX IMVI | Malme-3M | M14
